Tested on: panel of taste experts
Assay: taste evaluation of purified compounds in a water base
Assay type: in vivo
Details: 500 ppm in a water base
Method: A composition comprising the at least one glucosylated terpene glucosides was generated according to the methods described in the preceding examples. The compounds were dissolved in water (alternatively, the compounds could also be combined into a 2% (w/w) or 4% (w/w) sucrose solution or 7% (w/w) inverted sugar plus 0.15% citric acid (w/w) solution), wherein the final concentration of the composition in solution may range from 1 to 1000 ppm. A panel of taste experts evaluated the solutions.

SMILES | taste perceived | times sweeter than sucrose
C=C1C[C@@]23CC[C@H]4[C@@](C)(CCC[C@@]4(C)C(=O)O[C@@H]4OC(CO[C@H]5OC(CO)[C@@H](O)C(O)C5O)[C@@H](O)C(O)C4O)[C@@H]2CC[C@]1(O[C@@H]1OC(CO)[C@@H](O)C(O[C@@H]2OC(CO)[C@@H](O)C(O)C2O)C1O[C@@H]1OC(CO)[C@@H](O)C(O)C1O)C3 (stereo partly drawn) [compound of formula III, Mono α-1,6-glucosylated Rebaudioside A] | strong sweet taste | 200-300 times
C=C1C[C@@]23CC[C@H]4[C@@](C)(CCC[C@@]4(C)C(=O)O[C@@H]4OC(CO)[C@@H](O)C(O)C4O)[C@@H]2CC[C@]1(O[C@@H]1OC(CO)[C@@H](O)C(O[C@@H]2OC(CO[C@H]4OC(CO)[C@@H](O)C(O)C4O)[C@@H](O)C(O)C2O)C1O[C@@H]1OC(CO)[C@@H](O)C(O)C1O)C3 (stereo partly shown) [compound of formula VIII] | strong sweet taste | 200-300 times
